From the supplement of paper PMC10307832

What was measured:
Assay in all cases: relative viability (nuclei count vs DMSO), 5 days (fraction); higher = more cells survive
[1] = tested on: A-427
Procedure, shortened: (§1)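 For relative viability, nuclei counts in treated wells were divided by those in vehicle wells. Lung cancer cell lines had been pin-tool dosed in 1536-well plates the day after seeding and cultured for 5 days, then fixed and stained in one step (final 0.05% Triton X-100, 1% formaldehyde, 1 ug/ml Hoechst) and imaged at 4×. Doses were one drug alone or a fixed anchor-drug dose plus five library-drug doses (not always all listed) in √10 steps, and values are duplicate-plate medians.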

[2] = tested on: ABC-1
Procedure, shortened: as §1

[3] = tested on: CAL-12T
Procedure, shortened: as §1

[4] = tested on: COR-L 105
Procedure, shortened: as §1

[5] = tested on: COR-L23
Procedure, shortened: as §1

[6] = tested on: HOP-62
Procedure, shortened: as §1

[7] = tested on: LCLC-97TM1
Procedure, shortened: as §1

[8] = tested on: LXF-289
Procedure, shortened: as §1

[9] = tested on: NCI-H1437
Procedure, shortened: as §1

[10] = tested on: NCI-H1651
Procedure, shortened: as §1

[11] = tested on: NCI-H1915
Procedure, shortened: as §1

[12] = tested on: NCI-H1993
Procedure, shortened: as §1

[13] = tested on: NCI-H2009
Procedure, shortened: as §1

[14] = tested on: NCI-H2023
Procedure, shortened: as §1

[15] = tested on: NCI-H2342
Procedure, shortened: as §1

[16] = tested on: NCI-H2347
Procedure, shortened: as §1

[17] = tested on: NCI-H441
Procedure, shortened: as §1

[18] = tested on: NCI-H460
Procedure, shortened: as §1

[19] = tested on: NCI-H520
Procedure, shortened: as §1

[20] = tested on: NCI-H522
Procedure, shortened: as §1

[21] = tested on: NCI-H661
Procedure, shortened: as §1

[22] = tested on: NCI-H838
Procedure, shortened: as §1

[23] = tested on: PC-3 [JPC-3]
Procedure, shortened: as §1

For C=C1C(=O)O[C@@H](CCCCCCCC)[C@@H]1C(=O)O [C-75] + CC(=O)c1c(C)c2cnc(Nc3ccc(N4CCNCC4)cn3)nc2n(C2CCCC2)c1=O [Palbociclib] (partner 0.5 µM), the relative viability ([1]; first compound 0.08 µM) was 0.531, the relative viability ([1]; first compound 0.253 µM) was 0.468 and the relative viability ([1]; first compound 0.8 µM) was 0.49. The relative viability ([1]; first compound 2.53 µM) was 0.464, the relative viability ([1]; first compound 8 µM) was 0.523 and the relative viability ([2]; first compound 0.08 µM) was 0.711. The relative viability ([2]; first compound 0.253 µM) was 0.935, the relative viability ([2]; first compound 0.8 µM) was 0.559 and the relative viability ([2]; first compound 2.53 µM) was 0.494. The relative viability ([2]; first compound 8 µM) was 0.494, the relative viability ([3]; first compound 0.08 µM) was 0.531 and the relative viability ([3]; first compound 0.253 µM) was 0.533. The relative viability ([3]; first compound 0.8 µM) was 0.452, the relative viability ([3]; first compound 2.53 µM) was 0.458 and the relative viability ([3]; first compound 8 µM) was 0.449. For the same compound, the relative viability ([4]; first compound 0.08 µM) was 0.417, the relative viability ([4]; first compound 0.253 µM) was 0.41 and the relative viability ([4]; first compound 0.8 µM) was 0.358. It also gave a relative viability ([4]; first compound 2.53 µM) of 0.303, a relative viability ([4]; first compound 8 µM) of 0.39 and a relative viability ([5]; first compound 0.08 µM) of 0.353. For the same compound, the relative viability ([5]; first compound 0.253 µM) was 0.305, the relative viability ([5]; first compound 0.8 µM) was 0.255 and the relative viability ([5]; first compound 2.53 µM) was 0.24. The relative viability ([5]; first compound 8 µM) was 0.28, the relative viability ([6]; first compound 0.08 µM) was 0.46 and the relative viability ([6]; first compound 0.253 µM) was 0.431. The relative viability ([6]; first compound 0.8 µM) was 0.484, the relative viability ([6]; first compound 2.53 µM) was 0.361 and the relative viability ([6]; first compound 8 µM) was 0.413. It also gave a relative viability ([7]; first compound 0.08 µM) of 0.225, a relative viability ([7]; first compound 0.253 µM) of 0.261 and a relative viability ([7]; first compound 0.8 µM) of 0.177. It also gave a relative viability ([7]; first compound 2.53 µM) of 0.18, a relative viability ([7]; first compound 8 µM) of 0.239 and a relative viability ([8]; first compound 0.08 µM) of 0.567. It also gave a relative viability ([8]; first compound 0.253 µM) of 0.553, a relative viability ([8]; first compound 0.8 µM) of 0.597 and a relative viability ([8]; first compound 2.53 µM) of 0.604. For the same compound, the relative viability ([8]; first compound 8 µM) was 0.621, the relative viability ([9]; first compound 0.08 µM) was 0.301 and the relative viability ([9]; first compound 0.253 µM) was 0.381. It also gave a relative viability ([9]; first compound 0.8 µM) of 0.299, a relative viability ([9]; first compound 8 µM) of 0.312 and a relative viability ([10]; first compound 0.08 µM) of 0.509. For the same compound, the relative viability ([10]; first compound 0.253 µM) was 0.521, the relative viability ([10]; first compound 0.8 µM) was 0.521 and the relative viability ([10]; first compound 2.53 µM) was 0.476. The relative viability ([10]; first compound 8 µM) was 0.55, the relative viability ([11]; first compound 0.08 µM) was 0.515 and the relative viability ([11]; first compound 0.253 µM) was 0.556. The relative viability ([11]; first compound 0.8 µM) was 0.546, the relative viability ([11]; first compound 2.53 µM) was 0.472 and the relative viability ([11]; first compound 8 µM) was 0.5. For the same compound, the relative viability ([12]; first compound 0.08 µM) was 0.618, the relative viability ([12]; first compound 0.253 µM) was 0.778 and the relative viability ([12]; first compound 0.8 µM) was 0.719. It also gave a relative viability ([12]; first compound 2.53 µM) of 0.553, a relative viability ([12]; first compound 8 µM) of 0.642 and a relative viability ([13]; first compound 0.08 µM) of 0.24. The relative viability ([13]; first compound 0.253 µM) was 0.192, the relative viability ([13]; first compound 0.8 µM) was 0.19 and the relative viability ([13]; first compound 2.53 µM) was 0.171. For the same compound, the relative viability ([13]; first compound 8 µM) was 0.216, the relative viability ([14]; first compound 0.08 µM) was 0.395 and the relative viability ([14]; first compound 0.253 µM) was 0.449. For the same compound, the relative viability ([14]; first compound 0.8 µM) was 0.358, the relative viability ([14]; first compound 2.53 µM) was 0.244 and the relative viability ([14]; first compound 8 µM) was 0.276. The relative viability ([15]; first compound 0.08 µM) was 0.546, the relative viability ([15]; first compound 0.253 µM) was 0.488 and the relative viability ([15]; first compound 0.8 µM) was 0.551. The relative viability ([15]; first compound 2.53 µM) was 0.541, the relative viability ([15]; first compound 8 µM) was 0.571 and the relative viability ([16]; first compound 0.08 µM) was 0.468. It also gave a relative viability ([16]; first compound 0.253 µM) of 0.44, a relative viability ([16]; first compound 0.8 µM) of 0.35 and a relative viability ([16]; first compound 2.53 µM) of 0.389. It also gave a relative viability ([16]; first compound 8 µM) of 0.413, a relative viability ([17]; first compound 0.08 µM) of 0.255 and a relative viability ([17]; first compound 0.253 µM) of 0.255. For the same compound, the relative viability ([17]; first compound 0.8 µM) was 0.205, the relative viability ([17]; first compound 8 µM) was 0.184 and the relative viability ([18]; first compound 0.08 µM) was 0.0813. The relative viability ([18]; first compound 0.253 µM) was 0.104, the relative viability ([18]; first compound 0.8 µM) was 0.126 and the relative viability ([18]; first compound 2.53 µM) was 0.132. The relative viability ([18]; first compound 8 µM) was 0.155, the relative viability ([19]; first compound 0.08 µM) was 0.186 and the relative viability ([19]; first compound 0.253 µM) was 0.238. It also gave a relative viability ([19]; first compound 0.8 µM) of 0.225, a relative viability ([19]; first compound 2.53 µM) of 0.225 and a relative viability ([19]; first compound 8 µM) of 0.211. The relative viability ([20]; first compound 0.08 µM) was 1.27, the relative viability ([20]; first compound 0.253 µM) was 0.989 and the relative viability ([20]; first compound 0.8 µM) was 1.06. The relative viability ([20]; first compound 2.53 µM) was 0.698, the relative viability ([20]; first compound 8 µM) was 0.779 and the relative viability ([21]; first compound 0.08 µM) was 0.429. For the same compound, the relative viability ([21]; first compound 0.253 µM) was 0.41, the relative viability ([21]; first compound 0.8 µM) was 0.378 and the relative viability ([21]; first compound 2.53 µM) was 0.374. The relative viability ([21]; first compound 8 µM) was 0.394, the relative viability ([22]; first compound 0.08 µM) was 0.227 and the relative viability ([22]; first compound 0.253 µM) was 0.206. It also gave a relative viability ([22]; first compound 0.8 µM) of 0.194, a relative viability ([22]; first compound 2.53 µM) of 0.207 and a relative viability ([22]; first compound 8 µM) of 0.206. The relative viability ([23]; first compound 0.08 µM) was 0.54, the relative viability ([23]; first compound 0.253 µM) was 0.509 and the relative viability ([23]; first compound 0.8 µM) was 0.515. It also gave a relative viability ([23]; first compound 2.53 µM) of 0.502 and a relative viability ([23]; first compound 8 µM) of 0.568.
